# Measured values reported in ChEMBL document CHEMBL5154826, “Discovery of the Clinical Candidate MAK683: An EED-Directed, Allosteric, and Selective PRC2 Inhibitor for the Treatment of Advanced Malignancies” (J Med Chem, 2022).
# Assays:
# [1] = molecular target: Cytochrome P450 2C9 (Homo sapiens, UniProt P11712); assay: Inhibition of CYP2C9 in human liver microsomes using diclofenac as substrate incubated for 10 mins in presence of NADPH by LC-MS/MS analysis; assay type: ADME, Microsome
# [2] = Intrinsic clearance in human hepatocytes measured per 10^6 cells; assay type: ADME, cell-based, Hepatocyte; conditions: read-out: CLH
# [3] = Plasma protein binding in dog at 1 uM measured after 6 hrs LC-MS/MS analysis; assay type: ADME, cell-free, Canis lupus familiaris; conditions: read-out: PPB (converted)
# [4] = High throughput solubility of the compound at pH 7 after 16 to 24 hrs by MS/MS analysis; assay type: physicochemical; conditions: buffer, time 16-24 hrs, read-out: solubility
# [5] = molecular target: 3',5'-cyclic-AMP phosphodiesterase 4D (Homo sapiens, UniProt Q08499); assay: Inhibition of human Phosphodiesterase 4D
# Sequence of 3',5'-cyclic-AMP phosphodiesterase 4D (Q08499 whole entry): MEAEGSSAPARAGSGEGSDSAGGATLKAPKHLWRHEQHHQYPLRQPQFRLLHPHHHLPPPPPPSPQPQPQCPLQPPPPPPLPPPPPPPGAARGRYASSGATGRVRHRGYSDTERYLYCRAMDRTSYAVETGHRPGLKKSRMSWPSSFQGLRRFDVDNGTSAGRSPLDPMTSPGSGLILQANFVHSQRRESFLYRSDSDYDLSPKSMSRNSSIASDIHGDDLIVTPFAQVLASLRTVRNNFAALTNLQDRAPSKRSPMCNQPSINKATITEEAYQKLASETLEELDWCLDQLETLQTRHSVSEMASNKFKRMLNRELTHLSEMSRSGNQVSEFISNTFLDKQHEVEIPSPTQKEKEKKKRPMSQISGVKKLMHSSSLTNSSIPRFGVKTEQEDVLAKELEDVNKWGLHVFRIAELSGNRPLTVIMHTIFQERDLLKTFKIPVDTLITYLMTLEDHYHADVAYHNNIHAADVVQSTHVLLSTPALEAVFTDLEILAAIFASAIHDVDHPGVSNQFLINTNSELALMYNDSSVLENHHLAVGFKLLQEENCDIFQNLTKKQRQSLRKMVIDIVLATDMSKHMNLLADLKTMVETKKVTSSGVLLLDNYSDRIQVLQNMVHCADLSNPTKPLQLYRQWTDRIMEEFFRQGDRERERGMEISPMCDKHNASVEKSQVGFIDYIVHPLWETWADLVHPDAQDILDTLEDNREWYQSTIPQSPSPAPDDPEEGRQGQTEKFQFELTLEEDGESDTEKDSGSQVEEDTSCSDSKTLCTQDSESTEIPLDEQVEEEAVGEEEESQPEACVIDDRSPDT
# [6] = Toxicity in rat assessed as effect on adrenal gland; conditions: in vivo
# [7] = Intrinsic clearance in rat hepatocytes measured per 10^6 cells; assay type: ADME, cell-based, Hepatocyte; conditions: read-out: CLH
# [8] = Metabolic stability in human microsomes assessed as intrinsic clearance; assay type: ADME, Microsome; conditions: read-out: CLH
# [9] = Plasma clearance in dog; assay type: ADME, cell-free, Canis lupus familiaris
# [10] = Plasma clearance in rat assessed as hepatic extraction; assay type: ADME, cell-free; conditions: read-out: ERH
# [11] = Oral bioavailability in Sprague-Dawley rat at 2 mg/kg; assay type: ADME, organism-based; conditions: in vivo
# [12] = High throughput solubility of the compound at pH 4 after 16 to 24 hrs by MS/MS analysis; assay type: physicochemical; conditions: buffer, time 16-24 hrs
# [13] = Permeability across apical to basolateral side in human Caco-2 cells at 10 uM incubated for 2 hrs by LC/MS/MS analysis; assay type: ADME, cell-based; conditions: caco-2, 2 h, 10 µM
# [14] = molecular target: Synaptic vesicular amine transporter (Homo sapiens, UniProt Q05940); assay: Inhibition of vesicular monoamine transporter 2 (unknown origin)
# Sequence of Synaptic vesicular amine transporter (Q05940 whole entry): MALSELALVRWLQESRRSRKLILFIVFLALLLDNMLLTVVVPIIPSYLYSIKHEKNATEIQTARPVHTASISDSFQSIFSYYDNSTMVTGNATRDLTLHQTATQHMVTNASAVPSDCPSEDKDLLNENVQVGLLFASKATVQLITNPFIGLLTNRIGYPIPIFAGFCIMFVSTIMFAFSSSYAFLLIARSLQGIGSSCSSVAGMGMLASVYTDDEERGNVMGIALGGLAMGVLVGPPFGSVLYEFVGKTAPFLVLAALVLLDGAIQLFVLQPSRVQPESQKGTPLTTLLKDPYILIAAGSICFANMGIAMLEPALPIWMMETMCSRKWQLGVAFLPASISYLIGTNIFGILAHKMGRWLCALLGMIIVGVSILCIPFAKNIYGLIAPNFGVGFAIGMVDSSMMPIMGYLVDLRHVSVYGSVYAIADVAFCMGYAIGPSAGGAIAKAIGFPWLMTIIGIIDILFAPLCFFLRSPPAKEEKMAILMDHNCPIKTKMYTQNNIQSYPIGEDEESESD
# Sequence of Cytochrome P450 2C9 (P11712 whole entry): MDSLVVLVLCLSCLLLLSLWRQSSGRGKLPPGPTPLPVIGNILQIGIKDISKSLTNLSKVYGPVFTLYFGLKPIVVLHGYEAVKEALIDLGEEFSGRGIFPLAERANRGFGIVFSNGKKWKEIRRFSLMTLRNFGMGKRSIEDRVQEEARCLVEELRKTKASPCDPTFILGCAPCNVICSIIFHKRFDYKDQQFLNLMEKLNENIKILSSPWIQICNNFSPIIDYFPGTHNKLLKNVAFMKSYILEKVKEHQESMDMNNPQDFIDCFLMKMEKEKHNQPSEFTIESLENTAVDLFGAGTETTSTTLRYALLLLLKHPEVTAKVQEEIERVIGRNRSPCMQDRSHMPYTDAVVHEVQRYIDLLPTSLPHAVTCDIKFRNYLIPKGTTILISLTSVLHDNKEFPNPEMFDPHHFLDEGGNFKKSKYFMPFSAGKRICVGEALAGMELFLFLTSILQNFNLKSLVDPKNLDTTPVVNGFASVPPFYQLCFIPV
compound,measurement,setting,value
Cc1ncccc1-c1cnc(NCc2c(F)ccc3c2CCO3)n2cnnc12,IC50,[1],> 20 µM
same,hepatocyte CLint,[2],4.4 µL/min/1e6 cells
same,"fraction unbound at 6 h, 1 µM",[3],0.09
same,solubility,[4],19 µM
same,IC50,[5],6.4 µM
same,Activity,[6],Non-Toxic
same,hepatocyte CLint,[7],12 µL/min/1e6 cells
same,microsomal CLint,[8],33 µL/min/mg
same,clearance,[9],13 mL/min/kg
same,hepatic extraction ratio,[10],0.18
same,bioavailability,[11],69%
same,solubility,[12],266 µM
same,permeability,[13],2.8 10^-6 cm/s
same,IC50,[14],1800 nM
